Measurements published in ChEMBL document CHEMBL3885861, “Open TG-GATES”.

Species: Rattus norvegicus
Assay: Open TG-GATES - Regimen: Single
Format: toxicity, organism-based, Sprague-Dawley
Design: regimen Single, gender Male, age 6 weeks
Details: in vivo, po, 30 mg/kg, route gavage, dose level Low; for APTT / Bas / Eos / Fbg / Hb / Ht / Lym / MCH / MCHC / MCV / Mono / Neu / PT / Plat / RBC / Ret / WBC: tissue Blood; for KIDNEY_L / KIDNEY_R / KIDNEY_TOTAL: tissue Kidney; for LIVER: tissue Liver; for A/G / ALP / ALT / AST / BUN / CRE / Ca / Cl / DBIL / GLC / IP / K / LDH / Na / PL / RALB / TBIL / TC / TG / TP / gamma-GTP: tissue Plasma

Nc1ccc(Cc2ccc(N)cc2)cc1
TERMINAL_BW (3 h): 209.5 g | APTT (3 h): 14.3 s | Bas (3 h): 0% | Eos (3 h): 0.6% | Fbg (3 h): 262.8 mg/dL | Hb (3 h): 13 g/dL | Ht (3 h): 38% | Lym (3 h): 74.2% | MCH (3 h): 21 pg | MCHC (3 h): 34.1% | MCV (3 h): 61.4 fL | Mono (3 h): 3.6% | Neu (3 h): 20.8% | PT (3 h): 12 s | Plat (3 h): 147.2 x10_4/uL | RBC (3 h): 619 x10_4/ul | Ret (3 h): 7.8% | WBC (3 h): 100.2 x10_2/uL | KIDNEY_L (3 h): 0.9 g | KIDNEY_R (3 h): 0.9 g | KIDNEY_TOTAL (3 h): 1.8 g | LIVER (3 h): 8.8 g | A/G (3 h): 0.8 | ALP (3 h): 1545.4 IU/L | ALT (3 h): 47.4 IU/L | AST (3 h): 81.6 IU/L | BUN (3 h): 11 mg/dL | CRE (3 h): 0.2 mg/dL | Ca (3 h): 10.9 mg/dL | Cl (3 h): 105 meq/L | DBIL (3 h): 0.022 mg/dL | GLC (3 h): 172 mg/dL | IP (3 h): 9.1 mg/dL | K (3 h): 3.8 meq/L | LDH (3 h): 65.4 IU/L | Na (3 h): 141.2 meq/L | PL (3 h): 138.6 mg/dL | RALB (3 h): 2.6 g/dL | TBIL (3 h): 0.062 mg/dL | TC (3 h): 73 mg/dL | TG (3 h): 79.4 mg/dL | TP (3 h): 5.6 g/dL | gamma-GTP (3 h): 1.4 IU/L | TERMINAL_BW (6 h): 206.3 g | APTT (6 h): 14.7 s | Bas (6 h): 0% | Eos (6 h): 0.6% | Fbg (6 h): 274.6 mg/dL | Hb (6 h): 13.2 g/dL | Ht (6 h): 38.9% | Lym (6 h): 70.8% | MCH (6 h): 21.3 pg | MCHC (6 h): 34% | MCV (6 h): 62.7 fL | Mono (6 h): 2.2% | Neu (6 h): 25.2% | PT (6 h): 11.5 s | Plat (6 h): 141.7 x10_4/uL | RBC (6 h): 621.2 x10_4/ul | Ret (6 h): 8.2% | WBC (6 h): 77.7 x10_2/uL | KIDNEY_L (6 h): 0.9 g | KIDNEY_R (6 h): 0.9 g | KIDNEY_TOTAL (6 h): 1.8 g | LIVER (6 h): 8.6 g | A/G (6 h): 0.8 | ALP (6 h): 1547 IU/L | ALT (6 h): 37.2 IU/L | AST (6 h): 74.2 IU/L | BUN (6 h): 7.4 mg/dL | CRE (6 h): 0.2 mg/dL | Ca (6 h): 10.7 mg/dL | Cl (6 h): 107.2 meq/L | DBIL (6 h): 0.022 mg/dL | GLC (6 h): 167 mg/dL | IP (6 h): 9.6 mg/dL | K (6 h): 4 meq/L | LDH (6 h): 52.4 IU/L | Na (6 h): 141.8 meq/L | PL (6 h): 146.2 mg/dL | RALB (6 h): 2.5 g/dL | TBIL (6 h): 0.074 mg/dL | TC (6 h): 81 mg/dL | TG (6 h): 61.2 mg/dL | TP (6 h): 5.6 g/dL | gamma-GTP (6 h): 1.2 IU/L | TERMINAL_BW (9 h): 205 g | APTT (9 h): 13.5 s | Bas (9 h): 0% | Eos (9 h): 0.8% | Fbg (9 h): 260 mg/dL | Hb (9 h): 12.8 g/dL | Ht (9 h): 37.2% | Lym (9 h): 74% | MCH (9 h): 21.3 pg | MCHC (9 h): 34.2% | MCV (9 h): 62.1 fL | Mono (9 h): 2.4% | Neu (9 h): 22% | PT (9 h): 11.8 s | Plat (9 h): 138.8 x10_4/uL | RBC (9 h): 600 x10_4/ul | Ret (9 h): 8.6% | WBC (9 h): 106 x10_2/uL | KIDNEY_L (9 h): 0.9 g | KIDNEY_R (9 h): 0.9 g | KIDNEY_TOTAL (9 h): 1.8 g | LIVER (9 h): 7.6 g | A/G (9 h): 0.8 | ALP (9 h): 1400.6 IU/L | ALT (9 h): 34.4 IU/L | AST (9 h): 75.4 IU/L | BUN (9 h): 8.8 mg/dL | CRE (9 h): 0.2 mg/dL | Ca (9 h): 10.5 mg/dL | Cl (9 h): 106.8 meq/L | DBIL (9 h): 0.03 mg/dL | GLC (9 h): 167.6 mg/dL | IP (9 h): 11.3 mg/dL | K (9 h): 4.1 meq/L | LDH (9 h): 53.8 IU/L | Na (9 h): 143.4 meq/L | PL (9 h): 134.6 mg/dL | RALB (9 h): 2.5 g/dL | TBIL (9 h): 0.094 mg/dL | TC (9 h): 76 mg/dL | TG (9 h): 50.2 mg/dL | TP (9 h): 5.4 g/dL | gamma-GTP (9 h): 1.6 IU/L | TERMINAL_BW (24 h): 219.9 g | APTT (24 h): 13.8 s | Bas (24 h): 0% | Eos (24 h): 1% | Fbg (24 h): 278.6 mg/dL | Hb (24 h): 13.4 g/dL | Ht (24 h): 38.6% | Lym (24 h): 72.2% | MCH (24 h): 20.9 pg | MCHC (24 h): 34.7% | MCV (24 h): 60.2 fL | Mono (24 h): 2.6% | Neu (24 h): 23.6% | PT (24 h): 11.6 s | Plat (24 h): 137.1 x10_4/uL | RBC (24 h): 640.4 x10_4/ul | Ret (24 h): 6.5% | WBC (24 h): 93 x10_2/uL | KIDNEY_L (24 h): 0.9 g | KIDNEY_R (24 h): 1 g | KIDNEY_TOTAL (24 h): 1.9 g | LIVER (24 h): 10.1 g | A/G (24 h): 0.9 | ALP (24 h): 1877.6 IU/L | ALT (24 h): 44 IU/L | AST (24 h): 82 IU/L | BUN (24 h): 14.8 mg/dL | CRE (24 h): 0.2 mg/dL | Ca (24 h): 11.1 mg/dL | Cl (24 h): 105.6 meq/L | DBIL (24 h): 0.02 mg/dL | GLC (24 h): 168.4 mg/dL | IP (24 h): 8 mg/dL | K (24 h): 4 meq/L | LDH (24 h): 53.6 IU/L | Na (24 h): 143.4 meq/L | PL (24 h): 160.2 mg/dL | RALB (24 h): 2.7 g/dL | TBIL (24 h): 0.046 mg/dL | TC (24 h): 92.8 mg/dL | TG (24 h): 91.6 mg/dL | TP (24 h): 5.7 g/dL | gamma-GTP (24 h): 1 IU/L
